Results taken from patent publication US20130263297A1, “METHODS OF TREATING CANCER” (Cedars-Sinai Medical Center, priority 2010, published 2013).
“Also recorded” adds a separate entry of the source.

Key:
[1] = tested on: RANKL promoter in ARCaPE, ARCaPM and ARCaPE-RANKL cells; assay: RANKL promoter reporter assay, ARCaP model; assay type: cell-based, human
Text: Because the inventors are interested in how RANKL is transcriptionally regulated, the inventors have constructed a 2.5 kb 5′ upstream region of RANKL promoter. The inventors used BAC clones (RP11-86N24) to amplify the promoter region of RANKL from human chromosome 13 contig. The whole promoter region (2.5 kb) was then cloned into pGL3 basic luciferase reporter vector. The inventors placed RANKL promoter reporter into ARCaPE,M, C4-2, and a positive cell line, SaOS-2 to examine the basic promoter activity. Then, the inventors stimulated the RANKL promoter by various growth factors, such as vitamin D3, PTH, and TGFβ.

LNCaP-RANKL cells = assay: Soft agar (anchorage-independent) colony formation, LNCaP-RANKL; assay type: cell-based, human; details: addition of OPG
ARCaPE-RANKL cells = assay: Soft agar (anchorage-independent) colony formation, ARCaPE-RANKL; assay type: cell-based, human; details: addition of OPG
RAW 264.7 cells = assay: In vitro osteoclastogenesis assay (co-culture of RAW 264.7 osteoclast precursor cells with prostate cancer cells, TRAP staining); assay type: cell-based, mouse
Experimental: The co-cultures of osteoclast precursor cells (RAW 264.7 cells) and prostate cancer cells were performed in 48-well plate containing 500 μl of α-MEM media supplemented with 10% FBS and were set up in quadruplicates. Osteoclast precursor cells were seeded with prostate cancer cells in an 8:1 ratio (15,000 RAW 264.7 cells and 1,875 prostate cancer cells) per well. Recombinant mouse RANKL (100 ng/ml, provided by Dr. Xu Feng), was added to the assay as the positive control. Additionally, recombinant OPG (1 μg/ml) was added to designated wells to block RANKL-mediated increased osteoclastogenesis. The cells were checked under the microscope daily from day-4 to day-7. Cells were fixed and subjected to tartrate-resistant acid phosphatase (TRAP) staining (Sigma-Aldrich, Inc., St. Louis, Mo.). TRAP^+ multinucleated cells (3 nuclei) in the entire well were counted as mature osteoclasts and the images were taken under light microscopy.

[2] = tested on: RANKL-expressing prostate cancer cells; assay: Stem cell and neuroendocrine marker expression; assay type: cell-based
[3] = tested on: prostate (ARCaP and LNCaP) and osteosarcoma (MG-63 and Saos-2) cells; normal prostate (PrEC and RWPE-1) or bone (RAW264.7) cells; assay: RANKL induction of its own expression, cancer versus normal cells; assay type: cell-based
human cancer cells = assay: Bone colonization by human cancer cells (FIG. 34); assay type: in vivo; details: recombinant sRANKL

Molecule	RANKL promoter activity in ARCaPM cells ([1]; OPG treatment)	increased RANKL promoter activity in ARCaPE-RANKL cells ([1]; OPG treatment)	soft agar colony formation (tumorigenicity) of LNCaP-RANKL cells (LNCaP-RANKL cells)	soft agar colony formation (tumorigenicity) of ARCaPE-RANKL cells (ARCaPE-RANKL cells)	formation of mature osteoclasts induced by ARCaPE-RANKL and LNCaP-RANKL cells (RAW 264.7 cells; addition of OPG (1 μg/ml) to co-culture with RAW264.7)	osteoclastogenesis induced by Neo-transfected control cells (RAW 264.7 cells; addition of OPG to co-culture with RAW264.7)	expression of neuroendocrine markers [2]	expression of stem cell markers [2]	RANKL promoter activity in ARCaPE and ARCaPM cells ([1]; RANKL treatments)	ability of recombinant RANKL to induce its own expression [3]	bone colonization by human cancer cells (human cancer cells)
osteoprotegerin [OPG]	dampen	attenuated	attenuated	attenuated	blocked; also recorded: decreased by approximately two-fold	very minimal blocking effects	blocked	antagonized	–	–	–
RANKL: trimerized recombinant RANKL protein (rRANKL), receptor activator of NF-KB ligand (protein, UniProt O14788 69-317, looked up, extracellular domain trimerized) extracellular domain: YFRAQMDPNRISEDGTHCIYRILRLHENADFQDTTLESQDTKLIPDSCRRIKQAFQGAVQKELQHIVGSQHIRAEKAMVDGSWLDLAKRSKLEAQPFAHLTINATDIPSGSHKVSLSSWYHDRGWAKISNMTFSNGKLIVNQDGFYYLYANICFRHHETSGDLATEYLQLMVYVTKTSIKIPSSHTLMKGGSTKYWSGNSEFHFYSINVGGFFKLRSGEEISIEVSNPSLLDPDQDATYFGAFKVRDID	–	–	–	–	–	–	–	–	induced	restricted to cancer	promotes bone colonization
